According to US20220117913A1, “DEZOCINE DERIVATIVE AND MEDICAL USE THEREOF” (YANGTZE RIVER PHARMACEUTICAL GROUP CO., LTD., priority 2019, published 2022):
Structures can show the parent of a compound that is named as a salt. Where two headings read alike, the source gives them in different places.

Key:
[1] = target: δ opioid receptor (Homo sapiens, UniProt P41143); experiment: radioisotope ligand competitive binding assay, δ opioid receptor (DOR)
Excerpt: (§1) Through the radioisotope ligand competitive binding assay, IC50 of the compound was used as an indicator to evaluate the affinity of the compound to κ and δ opioid receptors.
(§2) (1) Reagents • The cell membrane was extracted from stably transfected cells constructed by WuXi AppTec, Shanghai. • 3H-diprenophrine (PerkinElmer, Cat: NET1121250UC, Lot: 2143599) • 3H-DAMGO (PerkinElmer, Cat: NET902250UC, Lot: 2139100) • 3H-DADLE (PerkinElmer, Cat: NET648250UC, Lot: 2060549) • Tris base (Sigma, Cat: T6066-1KG), prepare 1M stock and adjust pH to 7.4. • 0.5M EDTA (Invitrogen, Cat: 15575-038) • 1M MgCl2 (Sigma, Cat: M1028-100 ml) • PEI (Poly ethyleneimine) (Sigma, Cat: P3143) • Microscint 20 cocktail (PerkinElmer, Cat: 6013329) • Naltrindole (Sigma, Cat; N115) • (±)trans-U-50488 (Sigma, Cat: D8040) • DAMGO (Sigma, Cat: E7384)
(§3) (1) 1 μL of the test compounds, negative control (i.e., DMSO) and positive control (i.e., non-specific binding well compound), after being prepared, were respectively transferred to a 96-well plate;
(§4) (2) 99 μL of the prepared opioid receptor membrane protein was added to each well of the 96-well plate containing 1 μL of the compound;
(§5) (3) 100 μL of 2× corresponding radioisotope ligand was added to each well;
(§6) (4) The plate was placed on a shake and incubated at room temperature for 1 hour;
(§7) (5) Each well of the GF/C plate was soaked with 50 μL of 0.3% PEI for at least half an hour in advance;
(§8) (6) After the incubation was finished, the GF/C plate was washed with plate washing buffer once by using Harvest. Then, the cell membranes in the 96-well plate were collected onto the GF/C plate using Harvest, and the GF/C plate was washed four times with the plate washing buffer, each time about 250 μL;
(§9) (7) The GF/C plate was placed in an oven at 50° C. for 1 hour;
(§10) (8) The bottom of the GF/C plate was sealed with a plate sealing film, 50 μL of Microscint-20 scintillation fluid was added to each well, and then the plate was sealed with a transparent sealing film for microplate;
(§11) (9) The radioactive signal value CPM was read using MicroBeta2;
(§12) (10) The data was analyzed with Prism 5. The percentage inhibition rate was calculated with the calculation formula: % Inh=(1-Background subtracted Assay value/Background subtracted HC value)*100.

[2] = target: μ opioid receptor (Homo sapiens, UniProt P35372); experiment: radioisotope ligand competitive binding assay, μ opioid receptor (MOR)
[3] = target: κ opioid receptor (Homo sapiens, UniProt P41145); experiment: radioisotope ligand competitive binding assay, κ opioid receptor (KOR)
Excerpt: as §1, §2, §3, §4, §5, §6, §7, §8, §9, §10, §11, §12

[4] = [3H]-DADLE 0.5 nM, cell membrane of stably transfected cells, read-out: δ IC50
[5] = [3H]DAMGO 0.5 nM, cell membrane of stably transfected cells, read-out: μ IC50
[6] = [3H]Diprenorphine 0.3 nM, cell membrane of stably transfected cells, read-out: κ IC50

| Structure (SMILES) | IC50 [1, 4] [nM] | IC50 [2, 5] [nM] | IC50 [3, 6] [nM] | IC50 [1] [nM] | IC50 [2] [nM] | IC50 [3] [nM] |
| --- | --- | --- | --- | --- | --- | --- |
| C[C@@]12CCCCC[C@@H](Cc3ccc(OCc4ccccc4)cc31)[C@@H]2NCc1ccccc1 [Hydrochloride of compound 39] | 100 to 1000 | < 10 | 100 to 1000 | – | – | – |
| COc1ccc2c(c1)[C@@]1(C)CCCCC[C@@H](C2)[C@@H]1NC(C)C [Hydrochloride of compound 6] | > 10000 | 1000 to 10000 | 1000 to 10000 | – | – | – |
| CCCN(C)[C@H]1[C@H]2CCCCC[C@]1(C)c1cc(OC)ccc1C2 [Hydrochloride of compound 14] | > 10000 | 100 to 1000 | 1000 to 10000 | – | – | – |
| CN[C@H]1[C@H]2CCCCC[C@]1(C)c1cc(OCc3ccccc3)ccc1C2 [Hydrochloride of compound 38] | 1000 to 10000 | 10 to 100 | 1000 to 10000 | – | – | – |
| CCCCN[C@H]1[C@H]2CCCCC[C@]1(C)c1cc(OC)ccc1C2 [Hydrochloride of compound 4] | 1000 to 10000 | 10 to 100 | 1000 to 10000 | – | – | – |
| COc1ccc2c(c1)[C@@]1(C)CCCCC[C@@H](C2)[C@@H]1NCC1CC1 [Hydrochloride of compound 7] | > 10000 | 100 to 1000 | 100 to 1000 | – | – | – |
| CCOc1ccc2c(c1)[C@@]1(C)CCCCC[C@@H](C2)[C@@H]1N [Hydrochloride of compound 35] | – | – | – | > 10000 | 100 to 1000 | > 10000 |
| CCN[C@H]1[C@H]2CCCCC[C@]1(C)c1cc(O)ccc1C2 [Hydrochloride of compound 19] | 1000 to 10000 | < 10 | 10 to 100 | – | – | – |
| CN(C)[C@H]1[C@H]2CCCCC[C@]1(C)c1cc(O)ccc1C2 [Hydrochloride of compound 28] | 1000 to 10000 | < 10 | 100 to 1000 | – | – | – |
| C[C@@]12CCCCC[C@@H](Cc3ccc(O)cc31)[C@@H]2NCCc1ccc(Cl)c(Cl)c1 [Hydrochloride of compound 27] | 100 to 1000 | 10 to 100 | 10 to 100 | – | – | – |
| CN(Cc1ccccc1)[C@H]1[C@H]2CCCCC[C@]1(C)c1cc(OCc3ccccc3)ccc1C2 [Hydrochloride of compound 40] | 10 to 100 | < 10 | < 10 | – | – | – |
| CN(CCc1ccccc1)[C@H]1[C@H]2CCCCC[C@]1(C)c1cc(O)ccc1C2 [Hydrochloride of compound 30] | 10 to 100 | < 10 | 10 to 100 | – | – | – |
| CCOc1ccc2c(c1)[C@@]1(C)CCCCC[C@@H](C2)[C@@H]1NC [Hydrochloride of compound 37] | > 10000 | 1000 to 10000 | 1000 to 10000 | – | – | – |
| CC(C)N[C@H]1[C@H]2CCCCC[C@]1(C)c1cc(O)ccc1C2 [Hydrochloride of compound 23] | 1000 to 10000 | 10 to 100 | 100 to 1000 | – | – | – |
| CCCCCN(C)[C@H]1[C@H]2CCCCC[C@]1(C)c1cc(O)ccc1C2 [Hydrochloride of compound 33] | 100 to 1000 | < 10 | 100 to 1000 | – | – | – |
| CCN[C@H]1[C@H]2CCCCC[C@]1(C)c1cc(OC)ccc1C2 [Hydrochloride of compound 2] | > 10000 | 100 to 1000 | 1000 to 10000 | – | – | – |
| COc1ccc2c(c1)[C@@]1(C)CCCCC[C@@H](C2)[C@@H]1N(C)Cc1ccccc1 [Hydrochloride of compound 17] | > 10000 | 100 to 1000 | > 10000 | – | – | – |
| COc1ccc2c(c1)[C@@]1(C)CCCCC[C@@H](C2)[C@@H]1N1CCCC1 [Hydrochloride of compound 12] | > 10000 | 1000 to 10000 | > 10000 | – | – | – |
| C[C@@]12CCCCC[C@@H](Cc3ccc(O)cc31)[C@@H]2NCC1CC1 [Hydrochloride of compound 24] | 1000 to 10000 | 10 to 100 | 100 to 1000 | – | – | – |
| CCCN(C)[C@H]1[C@H]2CCCCC[C@]1(C)c1cc(O)ccc1C2 [Hydrochloride of compound 31] | 10 to 100 | < 10 | 100 to 1000 | – | – | – |
| CCCCN(C)[C@H]1[C@H]2CCCCC[C@]1(C)c1cc(O)ccc1C2 [Hydrochloride of compound 32] | 10 to 100 | < 10 | 10 to 100 | – | – | – |
